Results taken from article PMC4823954, “From fighting depression to conquering tumors: a novel tricyclic thiazepine compound as a tubulin polymerization inhibitor” (Cell Death & Disease, 2016).

Columns and labels:
Assay in all cases: KINOMEscan
Assay type in all cases: binding
Conditions in all cases: read-out: % Ctrl
EPHB4 = target: T1, EPHB4 (Homo sapiens, UniProt P54760)
T1 construct: purchased DiscoveRx KINOMEscan
Outline: (§1)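 Competition binding panel of 442 non-mutant kinases: test compound at 5 and 10 μM competed with an active-site-directed ligand for 1 h with shaking. Bound kinase was eluted with 0.5 μM ligand and quantified by qPCR; %Ctrl = (compound − positive control)/(DMSO − positive control) × 100, lower meaning tighter binding.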

PIP5K1A = target: T2, PIP5K1A (Homo sapiens, UniProt Q99755)
T2 construct: purchased DiscoveRx KINOMEscan
Outline: as §1

CIT = target: T3, CIT (Homo sapiens, UniProt O14578)
T3 construct: purchased DiscoveRx KINOMEscan
T3 sequence (O14578 whole entry): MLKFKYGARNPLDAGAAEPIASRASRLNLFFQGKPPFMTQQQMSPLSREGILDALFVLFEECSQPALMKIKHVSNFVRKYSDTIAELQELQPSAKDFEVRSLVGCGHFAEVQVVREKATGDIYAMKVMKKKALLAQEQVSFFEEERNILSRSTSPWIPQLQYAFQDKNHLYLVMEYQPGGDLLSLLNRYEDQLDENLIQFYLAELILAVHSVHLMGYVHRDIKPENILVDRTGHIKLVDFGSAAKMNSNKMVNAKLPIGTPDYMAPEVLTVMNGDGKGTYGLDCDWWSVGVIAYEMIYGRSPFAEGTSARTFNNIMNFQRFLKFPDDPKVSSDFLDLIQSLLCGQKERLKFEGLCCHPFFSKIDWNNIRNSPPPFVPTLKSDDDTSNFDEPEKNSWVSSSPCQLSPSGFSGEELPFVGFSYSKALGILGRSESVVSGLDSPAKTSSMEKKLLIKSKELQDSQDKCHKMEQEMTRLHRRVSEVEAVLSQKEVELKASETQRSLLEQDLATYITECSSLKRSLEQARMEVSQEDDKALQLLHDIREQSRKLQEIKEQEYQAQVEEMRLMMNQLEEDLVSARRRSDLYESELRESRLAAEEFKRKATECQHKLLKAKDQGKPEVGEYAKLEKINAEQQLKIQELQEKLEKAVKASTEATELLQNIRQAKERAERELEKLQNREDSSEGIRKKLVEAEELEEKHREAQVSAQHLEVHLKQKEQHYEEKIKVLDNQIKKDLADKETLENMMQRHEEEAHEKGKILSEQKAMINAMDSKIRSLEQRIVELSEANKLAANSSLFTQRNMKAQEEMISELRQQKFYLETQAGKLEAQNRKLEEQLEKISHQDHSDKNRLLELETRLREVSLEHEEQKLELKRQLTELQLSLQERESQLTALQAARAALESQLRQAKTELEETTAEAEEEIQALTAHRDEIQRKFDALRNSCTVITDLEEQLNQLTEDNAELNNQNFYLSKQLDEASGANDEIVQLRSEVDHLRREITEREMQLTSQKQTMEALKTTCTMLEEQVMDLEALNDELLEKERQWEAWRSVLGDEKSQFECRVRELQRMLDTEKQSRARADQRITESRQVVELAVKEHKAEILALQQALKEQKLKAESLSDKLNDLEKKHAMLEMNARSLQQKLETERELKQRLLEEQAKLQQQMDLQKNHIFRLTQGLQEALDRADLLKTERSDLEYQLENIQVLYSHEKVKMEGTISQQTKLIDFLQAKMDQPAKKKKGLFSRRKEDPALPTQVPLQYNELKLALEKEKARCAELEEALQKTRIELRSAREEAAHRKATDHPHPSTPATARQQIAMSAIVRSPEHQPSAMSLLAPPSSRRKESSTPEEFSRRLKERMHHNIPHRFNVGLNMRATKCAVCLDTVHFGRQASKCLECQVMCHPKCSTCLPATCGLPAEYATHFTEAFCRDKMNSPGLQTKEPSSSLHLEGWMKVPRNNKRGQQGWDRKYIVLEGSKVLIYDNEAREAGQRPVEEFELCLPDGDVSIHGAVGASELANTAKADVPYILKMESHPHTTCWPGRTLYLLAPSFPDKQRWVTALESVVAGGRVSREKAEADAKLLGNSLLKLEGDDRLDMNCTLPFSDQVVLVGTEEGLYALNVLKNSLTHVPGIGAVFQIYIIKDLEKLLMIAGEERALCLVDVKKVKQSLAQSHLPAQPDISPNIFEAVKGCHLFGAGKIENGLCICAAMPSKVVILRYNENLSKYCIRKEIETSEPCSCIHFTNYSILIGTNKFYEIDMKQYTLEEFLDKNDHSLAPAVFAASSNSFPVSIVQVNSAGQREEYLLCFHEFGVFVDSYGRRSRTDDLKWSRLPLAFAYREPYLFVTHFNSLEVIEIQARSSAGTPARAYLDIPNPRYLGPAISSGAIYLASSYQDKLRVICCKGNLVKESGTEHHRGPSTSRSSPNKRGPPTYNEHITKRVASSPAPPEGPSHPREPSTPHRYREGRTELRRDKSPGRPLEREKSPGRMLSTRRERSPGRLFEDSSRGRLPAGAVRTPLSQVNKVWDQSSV
Outline: as §1

ERK2 = target: T4, ERK2 (Homo sapiens, UniProt P28482)
T4 construct: purchased DiscoveRx KINOMEscan
Outline: as §1

SNARK = target: T5, SNARK (Homo sapiens, UniProt Q9H093)
T5 construct: purchased DiscoveRx KINOMEscan
Outline: as §1

EPHA3 = target: T6, EPHA3 (Homo sapiens, UniProt P29320)
T6 construct: purchased DiscoveRx KINOMEscan
Outline: as §1

DAPK3 = target: T7, DAPK3 (Homo sapiens, UniProt O43293)
T7 construct: purchased DiscoveRx KINOMEscan
Outline: as §1

[1] = target: T8, RSK4(Kin.Dom.1-N-terminal) (Homo sapiens, UniProt Q9UK32)
T8 construct: RSK4(Kin.Dom.1-N-terminal); purchased DiscoveRx KINOMEscan
T8 sequence (Q9UK32 1-400 limits assumed): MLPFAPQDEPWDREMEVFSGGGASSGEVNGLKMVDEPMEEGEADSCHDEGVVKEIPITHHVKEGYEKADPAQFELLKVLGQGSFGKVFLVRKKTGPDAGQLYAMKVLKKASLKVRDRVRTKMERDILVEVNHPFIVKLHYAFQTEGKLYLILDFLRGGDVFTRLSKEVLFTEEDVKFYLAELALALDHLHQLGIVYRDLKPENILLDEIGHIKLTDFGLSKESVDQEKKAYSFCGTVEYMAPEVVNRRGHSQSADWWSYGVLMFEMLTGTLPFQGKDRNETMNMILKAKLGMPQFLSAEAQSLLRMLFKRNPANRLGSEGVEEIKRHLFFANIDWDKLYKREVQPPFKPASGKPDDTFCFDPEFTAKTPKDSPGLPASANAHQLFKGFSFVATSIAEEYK
Outline: as §1

PKMYT1 = target: T9, PKMYT1 (Homo sapiens, UniProt Q99640)
T9 construct: purchased DiscoveRx KINOMEscan
Outline: as §1

PFPK5(P.falciparum) = target: T10, PFPK5(P.falciparum) (Plasmodium falciparum, UniProt P61075)
T10 construct: purchased DiscoveRx KINOMEscan
T10 sequence (P61075 whole entry): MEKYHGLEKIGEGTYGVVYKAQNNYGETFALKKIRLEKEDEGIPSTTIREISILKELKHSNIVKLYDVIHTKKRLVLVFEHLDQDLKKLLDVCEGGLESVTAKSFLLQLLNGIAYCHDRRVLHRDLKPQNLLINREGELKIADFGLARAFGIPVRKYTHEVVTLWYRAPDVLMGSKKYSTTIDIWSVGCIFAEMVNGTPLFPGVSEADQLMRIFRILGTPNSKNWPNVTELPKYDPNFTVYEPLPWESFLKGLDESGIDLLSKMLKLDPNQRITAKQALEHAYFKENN
Outline: as §1

[2] = target: RPS6KA5(Kin.Dom.2-C-terminal) (Homo sapiens, UniProt O75582)
Outline: as §1

MRCKB = target: T11, MRCKB (Homo sapiens, UniProt Q9Y5S2)
T11 construct: purchased DiscoveRx KINOMEscan
Outline: as §1

PKAC-alpha = target: T12, PKAC-alpha (Homo sapiens, UniProt P17612)
T12 construct: purchased DiscoveRx KINOMEscan
Outline: as §1

CDK2 = target: T13, CDK2 (Homo sapiens, UniProt P24941)
T13 construct: purchased DiscoveRx KINOMEscan
Outline: as §1

TAOK3 = target: T14, TAOK3 (Homo sapiens, UniProt Q9H2K8)
T14 construct: purchased DiscoveRx KINOMEscan
Outline: as §1

TAK1 = target: T15, TAK1 (Homo sapiens, UniProt O43318)
T15 construct: purchased DiscoveRx KINOMEscan
T15 sequence (O43318 whole entry): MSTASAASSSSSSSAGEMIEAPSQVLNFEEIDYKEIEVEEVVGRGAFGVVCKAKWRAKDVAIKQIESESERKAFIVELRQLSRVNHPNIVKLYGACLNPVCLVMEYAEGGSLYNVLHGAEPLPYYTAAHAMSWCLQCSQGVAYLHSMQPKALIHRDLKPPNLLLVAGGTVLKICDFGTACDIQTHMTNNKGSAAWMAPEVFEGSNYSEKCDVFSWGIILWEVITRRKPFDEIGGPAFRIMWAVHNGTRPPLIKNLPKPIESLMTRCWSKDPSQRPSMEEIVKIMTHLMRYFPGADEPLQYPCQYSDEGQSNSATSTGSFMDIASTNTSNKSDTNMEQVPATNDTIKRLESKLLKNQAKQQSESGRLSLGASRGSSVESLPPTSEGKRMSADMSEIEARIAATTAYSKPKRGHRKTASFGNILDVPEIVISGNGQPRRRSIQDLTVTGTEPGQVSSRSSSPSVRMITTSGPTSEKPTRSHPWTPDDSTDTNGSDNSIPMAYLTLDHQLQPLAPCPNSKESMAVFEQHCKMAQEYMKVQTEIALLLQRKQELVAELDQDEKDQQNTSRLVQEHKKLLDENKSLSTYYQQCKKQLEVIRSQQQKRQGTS
Outline: as §1

GSK3A = target: T16, GSK3A (Homo sapiens, UniProt P49840)
T16 construct: purchased DiscoveRx KINOMEscan
T16 sequence (P49840 whole entry): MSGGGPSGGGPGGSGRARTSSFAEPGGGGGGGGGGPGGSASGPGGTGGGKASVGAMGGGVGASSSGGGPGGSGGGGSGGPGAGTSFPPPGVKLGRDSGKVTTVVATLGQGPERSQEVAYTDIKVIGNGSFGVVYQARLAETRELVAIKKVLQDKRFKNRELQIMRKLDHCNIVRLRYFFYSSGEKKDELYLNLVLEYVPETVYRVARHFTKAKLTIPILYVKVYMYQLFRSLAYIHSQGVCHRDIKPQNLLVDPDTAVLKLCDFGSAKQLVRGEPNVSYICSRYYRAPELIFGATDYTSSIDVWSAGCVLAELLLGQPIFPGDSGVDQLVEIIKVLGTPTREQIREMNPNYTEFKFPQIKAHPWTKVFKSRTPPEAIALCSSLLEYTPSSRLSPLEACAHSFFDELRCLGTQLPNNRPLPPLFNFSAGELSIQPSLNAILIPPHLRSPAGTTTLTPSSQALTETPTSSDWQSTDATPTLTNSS
Outline: as §1

ULK1 = target: T17, ULK1 (Homo sapiens, UniProt O75385)
T17 construct: purchased DiscoveRx KINOMEscan
Outline: as §1

PAK7 = target: T18, PAK7 (Homo sapiens, UniProt Q9P286)
T18 construct: purchased DiscoveRx KINOMEscan
T18 sequence (Q9P286 whole entry): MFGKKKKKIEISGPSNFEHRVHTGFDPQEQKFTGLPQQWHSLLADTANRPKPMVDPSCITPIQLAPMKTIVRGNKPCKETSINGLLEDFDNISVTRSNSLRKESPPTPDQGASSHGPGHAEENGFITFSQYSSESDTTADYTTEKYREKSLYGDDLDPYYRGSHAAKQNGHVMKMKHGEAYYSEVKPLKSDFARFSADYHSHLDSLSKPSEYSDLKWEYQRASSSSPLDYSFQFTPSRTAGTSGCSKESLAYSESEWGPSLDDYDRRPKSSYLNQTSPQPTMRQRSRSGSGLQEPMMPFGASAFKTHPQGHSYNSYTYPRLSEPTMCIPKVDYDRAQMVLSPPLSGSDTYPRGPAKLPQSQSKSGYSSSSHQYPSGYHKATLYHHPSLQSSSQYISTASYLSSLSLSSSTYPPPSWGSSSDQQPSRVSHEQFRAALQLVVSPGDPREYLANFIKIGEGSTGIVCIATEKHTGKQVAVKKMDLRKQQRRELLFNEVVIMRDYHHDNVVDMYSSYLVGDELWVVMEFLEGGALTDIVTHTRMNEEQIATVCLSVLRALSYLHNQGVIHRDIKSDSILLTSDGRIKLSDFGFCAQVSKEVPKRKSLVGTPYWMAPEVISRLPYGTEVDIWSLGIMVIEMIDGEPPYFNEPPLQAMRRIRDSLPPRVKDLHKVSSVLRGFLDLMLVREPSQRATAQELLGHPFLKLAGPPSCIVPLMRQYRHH
Outline: as §1

ABL1-phosphorylated = target: T19, ABL1-phosphorylated (Homo sapiens, UniProt P00519)
T19 construct: purchased DiscoveRx KINOMEscan
Outline: as §1

LATS1 = target: T20, LATS1 (Homo sapiens, UniProt O95835)
T20 construct: purchased DiscoveRx KINOMEscan
Outline: as §1

CHEK1 = target: T21, CHEK1 (Homo sapiens, UniProt O14757)
T21 construct: purchased DiscoveRx KINOMEscan
Outline: as §1

PRKCQ = target: T22, PRKCQ (Homo sapiens, UniProt Q04759)
T22 construct: purchased DiscoveRx KINOMEscan
Outline: as §1

GRK7 = target: T23, GRK7 (Homo sapiens, UniProt Q8WTQ7)
T23 construct: purchased DiscoveRx KINOMEscan
T23 sequence (Q8WTQ7 whole entry): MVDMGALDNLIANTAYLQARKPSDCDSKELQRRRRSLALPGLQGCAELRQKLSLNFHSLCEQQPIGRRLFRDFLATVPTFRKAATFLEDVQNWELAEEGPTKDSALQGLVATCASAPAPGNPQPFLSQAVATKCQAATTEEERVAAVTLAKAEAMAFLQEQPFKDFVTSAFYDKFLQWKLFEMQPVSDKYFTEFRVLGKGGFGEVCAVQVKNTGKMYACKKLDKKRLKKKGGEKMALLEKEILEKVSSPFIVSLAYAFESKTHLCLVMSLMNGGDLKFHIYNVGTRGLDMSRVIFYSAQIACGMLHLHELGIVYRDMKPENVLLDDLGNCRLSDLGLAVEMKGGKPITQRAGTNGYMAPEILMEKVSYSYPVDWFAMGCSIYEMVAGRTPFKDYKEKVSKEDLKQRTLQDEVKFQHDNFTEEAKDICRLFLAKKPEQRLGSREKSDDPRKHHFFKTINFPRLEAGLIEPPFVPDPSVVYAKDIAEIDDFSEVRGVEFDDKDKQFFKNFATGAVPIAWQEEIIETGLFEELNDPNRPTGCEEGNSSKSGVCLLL
Outline: as §1

PIP5K2B = target: T24, PIP5K2B (Homo sapiens, UniProt P78356)
T24 construct: purchased DiscoveRx KINOMEscan
Outline: as §1

MYLK = target: T25, MYLK (Homo sapiens, UniProt Q15746)
T25 construct: purchased DiscoveRx KINOMEscan
Outline: as §1

QSK = target: T26, QSK (Homo sapiens, UniProt Q9Y2K2)
T26 construct: purchased DiscoveRx KINOMEscan
Outline: as §1

CLK2 = target: T27, CLK2 (Homo sapiens, UniProt P49760)
T27 construct: purchased DiscoveRx KINOMEscan
Outline: as §1

CAMK1D = target: T28, CAMK1D (Homo sapiens, UniProt Q8IU85)
T28 construct: purchased DiscoveRx KINOMEscan
Outline: as §1

FAK = target: T29, FAK (Homo sapiens, UniProt Q05397)
T29 construct: purchased DiscoveRx KINOMEscan
Outline: as §1

`Cc1ccc(C2=Nc3cccnc3S(=O)(=O)c3ccccc32)cc1` [TBPT, 6-(p-tolyl)benzo[f] pyrido[2,3-b][1,4] thiazepine 11,11-dioxide] was tested, and the remaining binding at 5 µM (EPHB4; 5 μM) was 100%, the remaining binding at 10 µM (EPHB4; 10 μM) was 98% and the remaining binding at 5 µM (PIP5K1A; 5 μM) was 98%. It also gave a remaining binding at 10 µM (PIP5K1A; 10 μM) of 100%, a remaining binding at 5 µM (CIT; 5 μM) of 98% and a remaining binding at 10 µM (CIT; 10 μM) of 97%. For the same compound, the remaining binding at 5 µM (ERK2; 5 μM) was 76%, the remaining binding at 10 µM (ERK2; 10 μM) was 92% and the remaining binding at 5 µM (SNARK; 5 μM) was 100%. For the same compound, the remaining binding at 10 µM (SNARK; 10 μM) was 100%, the remaining binding at 5 µM (EPHA3; 5 μM) was 80% and the remaining binding at 10 µM (EPHA3; 10 μM) was 100%. It also gave a remaining binding at 5 µM (DAPK3; 5 μM) of 100%, a remaining binding at 10 µM (DAPK3; 10 μM) of 100% and a remaining binding at 5 µM ([1]; 5 μM) of 83%. The remaining binding at 10 µM ([1]; 10 μM) was 94%, the remaining binding at 5 µM (PKMYT1; 5 μM) was 86% and the remaining binding at 10 µM (PKMYT1; 10 μM) was 99%. For the same compound, the remaining binding at 5 µM (PFPK5(P.falciparum); 5 μM) was 97%, the remaining binding at 10 µM (PFPK5(P.falciparum); 10 μM) was 97% and the remaining binding at 5 µM ([2]; 5 μM) was 100%. The remaining binding at 10 µM ([2]; 10 μM) was 93%, the remaining binding at 5 µM (MRCKB; 5 μM) was 89% and the remaining binding at 10 µM (MRCKB; 10 μM) was 92%. For the same compound, the remaining binding at 5 µM (PKAC-alpha; 5 μM) was 93%, the remaining binding at 10 µM (PKAC-alpha; 10 μM) was 100% and the remaining binding at 5 µM (CDK2; 5 μM) was 98%. For the same compound, the remaining binding at 10 µM (CDK2; 10 μM) was 93%, the remaining binding at 5 µM (TAOK3; 5 μM) was 89% and the remaining binding at 10 µM (TAOK3; 10 μM) was 100%. It also gave a remaining binding at 5 µM (TAK1; 5 μM) of 87%, a remaining binding at 10 µM (TAK1; 10 μM) of 93% and a remaining binding at 5 µM (GSK3A; 5 μM) of 100%. The remaining binding at 10 µM (GSK3A; 10 μM) was 100%, the remaining binding at 5 µM (ULK1; 5 μM) was 100% and the remaining binding at 10 µM (ULK1; 10 μM) was 83%. It also gave a remaining binding at 5 µM (PAK7; 5 μM) of 78%, a remaining binding at 10 µM (PAK7; 10 μM) of 95% and a remaining binding at 5 µM (ABL1-phosphorylated; 5 μM) of 72%. It also gave a remaining binding at 10 µM (ABL1-phosphorylated; 10 μM) of 97%, a remaining binding at 5 µM (LATS1; 5 μM) of 100% and a remaining binding at 10 µM (LATS1; 10 μM) of 100%. For the same compound, the remaining binding at 5 µM (CHEK1; 5 μM) was 100%, the remaining binding at 10 µM (CHEK1; 10 μM) was 100% and the remaining binding at 5 µM (PRKCQ; 5 μM) was 100%. The remaining binding at 10 µM (PRKCQ; 10 μM) was 100%, the remaining binding at 5 µM (GRK7; 5 μM) was 100% and the remaining binding at 10 µM (GRK7; 10 μM) was 100%. The remaining binding at 5 µM (PIP5K2B; 5 μM) was 100%, the remaining binding at 10 µM (PIP5K2B; 10 μM) was 100% and the remaining binding at 5 µM (MYLK; 5 μM) was 100%. For the same compound, the remaining binding at 10 µM (MYLK; 10 μM) was 81%, the remaining binding at 5 µM (QSK; 5 μM) was 76% and the remaining binding at 10 µM (QSK; 10 μM) was 100%. For the same compound, the remaining binding at 5 µM (CLK2; 5 μM) was 100%, the remaining binding at 10 µM (CLK2; 10 μM) was 100% and the remaining binding at 5 µM (CAMK1D; 5 μM) was 81%. For the same compound, the remaining binding at 10 µM (CAMK1D; 10 μM) was 91%, the remaining binding at 5 µM (FAK; 5 μM) was 92% and the remaining binding at 10 µM (FAK; 10 μM) was 92%.
